Test results as given in PMC3793977, “High-Throughput Screening (HTS) and Hit Validation to Identify Small Molecule Inhibitors with Activity against NS3/4A proteases from Multiple Hepatitis C Virus Genotypes” (PLoS ONE, 2013).

Columns and labels:
[1] = target: T1, full-length NS3/4A protease (genotype 1b) (Hepatitis C virus genotype 1b, UniProt Q9WMX2); experiment: biochemical
T1 construct: wild-type HCV NS3 (HCV polyprotein residues 1027–1657); His-tag (N); made in house

full-length NS3/4A [2] = target: T2, full-length NS3/4A (Hepatitis C virus genotype 1b, UniProt Q9WMX2); experiment: SPR binding assay (dissociation equilibrium constant KD); conditions: double referenced with blank and unrelated reference protein
T2 construct: wild-type HCV NS3 (HCV polyprotein residues 1027–1657); His-tag (N); made in house
Description: The full-length NS3/4A enzyme was prepared in a storage buffer (50 mM HEPES, pH 7.6, 500 mM NaCl, 1 mM DTT, 0.2% Triton X-100, and 20% glycerol) and immobilized on a CM5 sensor chip using standard amine-coupling at 25°C with running buffer HBS-P (10 mM HEPES, 150 mM NaCl, 0.05% surfactant P-20, pH 7.4) using a Biacore T100 instrument. Flow channels 1 and 3 were activated by 1-ethyl-3-(3-dimethylaminopropyl) carbodiimide hydrocholoride (EDC)/N-hydroxy succinimide (NHS) mixture, and the activated surface was blocked by ethanolamine (pH 8.5) as controls. The NS3/4A enzyme was diluted in 10 mM sodium acetate (pH 5.0), and immobilized to flow channel 4 after sensor surface activation with EDC/NHS with a 7 min injection followed by ethanolamine blocking on unoccupied surface area. NS3/4A immobilization level was ∼8,500 response units (RU). An unrelated reference protein (92 kDa) was also immobilized to flow channel 2 as another control to be compared with NS3/4A (74.6 kDa). Fifteen initial hit compounds were prepared as 10 mM DMSO stock solutions. Compound solutions with a series of increasing concentrations (0–200 µM at 1.5-fold dilution) were applied to all four channels at a 10 µL/min flow rate at 25°C. Sensorgrams were analyzed using Biaevaluation software 2.0.3, and response unit difference (ΔRU) values at each concentration were measured during the equilibration phase. Data were either single referenced with a blank (enthanolamine) or double referenced with both blank and reference protein RU values. SigmaPlot 11.0 was used to fit the data to a single rectangular hyperbolic curve to determine KD values. The hyperbola function, y = ymax·x/(KD+x), was used to plot response units and corresponding concentration, where y is the response, ymax is the maximum response, and x is the compound concentration.
Target sequence in this assay (Q9WMX2 1658-1711): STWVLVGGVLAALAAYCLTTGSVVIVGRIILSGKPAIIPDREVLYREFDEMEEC
Target sequence in this assay (Q9WMX2 1027-1657): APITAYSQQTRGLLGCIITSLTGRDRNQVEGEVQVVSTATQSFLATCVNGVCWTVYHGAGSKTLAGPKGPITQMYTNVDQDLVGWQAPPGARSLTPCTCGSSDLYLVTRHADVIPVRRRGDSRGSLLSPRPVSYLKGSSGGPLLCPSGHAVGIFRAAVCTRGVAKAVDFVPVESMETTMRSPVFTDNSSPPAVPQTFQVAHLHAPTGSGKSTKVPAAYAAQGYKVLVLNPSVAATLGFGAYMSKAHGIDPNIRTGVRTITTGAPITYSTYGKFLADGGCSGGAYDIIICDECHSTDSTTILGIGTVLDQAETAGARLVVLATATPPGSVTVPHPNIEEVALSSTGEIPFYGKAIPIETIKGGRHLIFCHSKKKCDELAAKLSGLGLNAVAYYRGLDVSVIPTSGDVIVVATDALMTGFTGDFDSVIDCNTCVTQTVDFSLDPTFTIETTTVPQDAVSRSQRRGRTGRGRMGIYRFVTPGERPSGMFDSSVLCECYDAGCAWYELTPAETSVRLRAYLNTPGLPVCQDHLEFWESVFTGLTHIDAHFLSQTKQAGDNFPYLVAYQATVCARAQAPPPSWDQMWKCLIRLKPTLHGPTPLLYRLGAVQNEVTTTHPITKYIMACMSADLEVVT

full-length NS3/4A [3] = target: T2, full-length NS3/4A; experiment: Type (mechanism) of enzyme inhibition, kinetic analysis; format: biochemical
Description: Full-length NS3/4A activity was monitored in the same way as the primary screening with varying concentration of both inhibitor compounds and substrate (0–8 µM). The concentration of compounds varied from 0 to 20 µM at 1.5-fold dilution factor.
Target sequence in this assay (Q9WMX2 1027-1657): as above
Target sequence in this assay (Q9WMX2 1658-1711): as the sequence (Q9WMX2 1658-1711) above

NS3 protease domain = target: T3, NS3 protease domain (Hepatitis C virus genotype 1b, UniProt Q9WMX2); experiment: Fluorescence enzymatic assay with NS3 protease domain alone; format: biochemical; conditions: NS3/4A protease domain only; read-out: IC50 NS3 protease domain
T3 construct: the full-length NS3/4A and the NS3/4A protease domain alone
Description: A series of compound concentrations (0 to 200 µM final concentration at 2-fold serial dilution) in 100% DMSO were prepared in a 384-well plate. 20 µL of enzyme solution was distributed to wells, and 0.5 µL of varying concentration of compounds were added and incubated for 5 minutes. The enzyme reaction was initiated by adding 5 µL of the substrate, and its activity was continuously monitored for 6 minutes. The IC50 values were calculated by fitting with the Hill equation (1), with OriginPro 8.5 (OriginLab, Inc.) where y is percent inhibition, x is inhibitor concentration, n is the slope of the concentration–response curve (Hill slope), and Vmax is maximal inhibition from two to four independent assays. [drawing 1] (1)

[4] = Microsomal stability assay; format: in vitro ADME, mouse
Description: A typical incubation mixture (100 µL total volume) for the metabolic stability studies contained 1 µM (final concentration) test compounds, 0.5 mg/mL microsomal protein (pooled Balb/c mouse liver microsomes prepared as described previously), 100 mM Tris-HCl buffer (pH7.4), and NADPH-generating system (5 mM isocitric acid, 0.2 unit/mL isocitric acid dehydrogenase, 5 mM magnesium chloride, 1 mM NADP^+). After pre-incubation at 37°C for 5 minutes, the reactions were started by addition of NADP^+ and further incubated for another 0, 5, 10, and 20 minutes. For control experiments, NADPH and/or liver microsomes were omitted from these incubations. The reactions were terminated by adding 100 µL ice-cold acetonitrile containing phenytoin (1 µM) as an internal standard and kept on ice for 30 minutes, followed by centrifugation at 16,100 g for 15 minutes to obtain the supernatant. Aliquots (5 µL) were then analyzed for substrate disappearance using liquid chromatography-tandem mass spectrometry (Agilent 1200 HPLC interfaced with Applied Biosystems Qtrap 3200) equipped with an electrospray ion source. Chromatographic separation was carried out with a Waters XTerra MS C18 column (2.1×50 mm, 3.5 µm; Agilent Technologies, Santa Clara, CA). The mobile phases consisted of solvent A (0.1% (v/v) aqueous formic acid) and solvent B (acetonitrile). A 250 µL/min flow rate gradient was developed for each test compound over 10 minutes (Table S2 in File S1). Mass detection of test substrates and internal standard were followed in a positive ion mode by examining multiple reaction monitoring (MRM) pairs. The spraying needle voltage was set at 5000 V. Curtain gas was set at 20; gas 1 and gas 2 were set at 45 and 50, respectively; collision assisted dissociation gas was at medium; and the source heater probe temperature was at 500°C. The test compounds were quantified by comparing the ratio of ion currents obtained for the substrates and an internal standards calibration curve. Data acquisition and processing were accomplished using Analyst software (version 1.4.1; Applied Biosystems). Apparent half-lives (t1/2) for the disappearance of parent drugs were calculated from the pseudo-first-order rate constants (ke) obtained by linear regression of plots of log [drug remaining] versus time (GraphPad Prism 5 software, La Jolla, CA) using the equation: t1/2 = 0.693/ke.

T1 sequence (Q9WMX2 1658-1711): as above
T1 sequence (Q9WMX2 1027-1657): as the sequence (Q9WMX2 1027-1657) above
T3 sequence (Q9WMX2 1027-1208): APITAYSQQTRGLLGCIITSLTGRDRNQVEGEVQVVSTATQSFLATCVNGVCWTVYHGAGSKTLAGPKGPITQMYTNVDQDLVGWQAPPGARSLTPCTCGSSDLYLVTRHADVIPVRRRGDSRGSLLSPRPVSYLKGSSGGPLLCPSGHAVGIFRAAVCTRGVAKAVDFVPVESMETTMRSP

Cc1cc(NC(=O)Cc2csc(NS(=O)(=O)c3ccccc3)n2)ccc1Br [Compound 12]
LE ([1]; calculated with IC50 values from the full-length NS3/4A): 0.29 kcal/mol/heavy atom | IC50 ([1]; purified full-length NS3/4A, genotype 1b wild-type, read-out: IC50 Full-length NS3/4A): 2.2 ± 0.4 µM | SPR binding to NS3/4A, double referenced (full-length NS3/4A [2]): specific binding | Ki (full-length NS3/4A [3]; competitive model, with respect to substrate): 3.5 µM | mechanism of inhibition (full-length NS3/4A [3]; with respect to the substrate, best fit model): competitive inhibitors | IC50 (NS3 protease domain): 9.3 ± 1.6 µM | half-life at 1 µM ([4]; Balb/c, pH 7.4, mouse liver microsomes 0.5 mg/mL, 1 µM compound, NADPH-generating system, read-out: Microsomal stability t1/2): 21.7 min | microsomal stability ([4]; mouse liver microsomes, rounded values): 22 min
